Patent US20100227917A1, “EYE DROP CONTAINING DIBENZ[b,e]OXEPIN DERIVATIVE” (priority 2007, published 2010)

Experiments:
Assay type in all cases: physicochemical
[1] = Osmotic pressure measurement with osmometer; settings: ratio to physiological saline (293 mOsm), after 43 hours
Description: An osmotic pressure was measured using an osmometer (Osmostat OM6040, Arkray, Inc.).
Further, a ratio to the osmotic pressure of physiological saline was calculated according to the following equation.
(osmotic pressure ratio)=(osmotic pressure of test liquid)/(osmotic pressure of physiological saline)(293mOsm)

[2] = pH measurement
Description: (§1) Each of the resulting mixtures was stirred with a magnetic stirrer at room temperature (about 23° C.) for 1 hour, and external observation and pH measurement were carried out. Then, an aqueous solution of sodium hydroxide was added to each mixture to prepare mixtures of pH 4 and 7, and external observation and pH measurement were carried out. Then, the mixtures were left at room temperature (about 23° C.) for 43 hours, and external observation, pH measurement, solubility measurement, and osmotic pressure measurement were carried out.
(§2) Each of the resulting mixtures was stirred with a magnetic stirrer at room temperature (about 23° C.) for 1 hour, and external observation and pH measurement were carried out. Then, an aqueous solution of sodium hydroxide was added to each mixture to prepare a mixture of pH 4, and external observation and pH measurement were carried out. Then, the mixture was left at room temperature (about 23° C.) for 43 hours, and external observation, pH measurement, solubility measurement, and osmotic pressure measurement were carried out in the same manner as in Test Example 1.

[3] = External observation of olopatadine hydrochloride mixtures (Test Examples 1 and 2); settings: for External appearance after 1 hour stirring: about 23° C.; for External appearance after 43 hours: left at about 23° C.
Description: as §1, §2

[4] = Aqueous solution of 0.9% NaCl, prepared to pH 4
[5] = Buffer at pH 4.0 containing 0.9% NaCl, prepared to pH 4
[6] = Buffer at pH 7.0 containing 0.9% NaCl, prepared to pH 4
[7] = glutamic acid-sodium glutamate buffer at pH 4.0, prepared to pH 4.0
[8] = glutamic acid-sodium glutamate buffer at pH 4.0, prepared to pH 7.0
[9] = glutamic acid-sodium glutamate buffer at pH 7.0, prepared to pH 4.0
[10] = glutamic acid-sodium glutamate buffer at pH 7.0, prepared to pH 7.0
[11] = 100 mg in 10 mL Aqueous solution of 0.9% NaCl
[12] = 100 mg in 10 mL Buffer at pH 4.0 containing 0.9% NaCl
[13] = 100 mg in 10 mL Buffer at pH 7.0 containing 0.9% NaCl
[14] = 100 mg in 10 mL glutamic acid-sodium glutamate buffer at pH 4.0, column prepared to pH 4.0
[15] = 100 mg in 10 mL glutamic acid-sodium glutamate buffer at pH 4.0, column prepared to pH 7.0
[16] = 100 mg in 10 mL glutamic acid-sodium glutamate buffer at pH 7.0, column prepared to pH 4.0
[17] = 100 mg in 10 mL glutamic acid-sodium glutamate buffer at pH 7.0, column prepared to pH 7.0

## CN(C)CC/C=C1/c2ccccc2COc2ccc(CC(=O)O)cc21.Cl [olopatadine hydrochloride, (Z)-11-(3-dimethylaminopropylidene)-6,11-dihydrodibenz[b,e]oxepin-2-acetic acid hydrochloride]
[1]; [4]
  Osmotic pressure ratio: 1.085
[1]; [5]
  Osmotic pressure ratio: 1.167
[1]; [6]
  Osmotic pressure ratio: 1.201
[1]; [7]
  Osmotic pressure ratio: 0.290
[1]; [8]
  Osmotic pressure ratio: 0.403
[1]; [9]
  Osmotic pressure ratio: 0.270
[1]; [10]
  Osmotic pressure ratio: 0.379
[2]; [11]
  pH after 1 hour stirring: 3.0
[2]; [12]
  pH after 1 hour stirring: 3.6
[2]; [13]
  pH after 1 hour stirring: 4.1
[2]; [14]
  pH after 1 hour stirring: 3.3
[2]; [15]
  pH after 1 hour stirring: 3.3
[2]; [16]
  pH after 1 hour stirring: 4.0
[2]; [17]
  pH after 1 hour stirring: 4.0
[2]; [4]
  pH adjustment (actual measurement value): 3.8
  pH after 43 hours: 3.7
[2]; [5]
  pH adjustment (actual measurement value): 3.8
  pH after 43 hours: 3.8
[2]; [6]
  pH adjustment (actual measurement value): 4.1
  pH after 43 hours: 3.9
[2]; [7]
  pH adjustment (actual measurement value): 4.1
  pH after 43 hours: 3.9
[2]; [8]
  pH adjustment (actual measurement value): 6.9
  pH after 43 hours: 6.9
[2]; [9]
  pH adjustment (actual measurement value): 4.0
  pH after 43 hours: 3.7
[2]; [10]
  pH adjustment (actual measurement value): 6.9
  pH after 43 hours: 6.9
[3]; [11]
  External appearance after 1 hour stirring: Turbid in white
[3]; [12]
  External appearance after 1 hour stirring: Turbid in white
[3]; [13]
  External appearance after 1 hour stirring: Almost clear
[3]; [14]
  External appearance after 1 hour stirring: Clear
[3]; [15]
  External appearance after 1 hour stirring: Clear
[3]; [16]
  External appearance after 1 hour stirring: Clear
[3]; [17]
  External appearance after 1 hour stirring: Clear
[3]; [4]
  External appearance after pH adjustment: Turbid in white
  External appearance after 43 hours: Turbid in white
[3]; [5]
  External appearance after pH adjustment: Turbid in white
  External appearance after 43 hours: Turbid in white
[3]; [6]
  External appearance after pH adjustment: Almost clear
  External appearance after 43 hours: Turbid in white
[3]; [7]
  External appearance after pH adjustment: Clear
  External appearance after 43 hours: Turbid in white
[3]; [8]
  External appearance after pH adjustment: Turbid in white
  External appearance after 43 hours: Turbid in white
[3]; [9]
  External appearance after pH adjustment: Clear
[3]; [10]
  External appearance after pH adjustment: Turbid in white
  External appearance after 43 hours: Turbid in white
